From USRE38425E1, “Semicarbazones having CNS activity and pharmaceutical preparations containing same” (University of Saskatchewan Technologies, Inc., priority 1995, dated 2004)

Assays:
[1] = system: mice; experiment: subcutaneous bicuculline test; type: in vivo
Description: (§1) Compound 4b was also examined for protective effects after subcutaneous administration of strychnine. […] Two animals per dose were used except in the bicuculline and picrotoxin tests for 4b in which cases, 8 or 16 animals per dose were employed.

[2] = system: mice; experiment: MES screen after intraperitoneal injection in mice; type: in vivo; conditions: time t (h) per compound as in the table
[3] = system: mice; experiment: subcutaneous picrotoxin test; type: in vivo
Description: as §1

[4] = in vivo; conditions: rat, ip
[5] = system: mice; experiment: subcutaneous strychnine test; type: in vivo; conditions: dose range of 13.5-108 mg/kg
Description: as §1

[6] = system: mice; conditions: intraperitoneal injection in mice; time t (h) per compound as in the table
Description: An initial anticonvulsant evaluation of the compounds prepared according to Example 1 was undertaken by administering the compounds by the intraperitoneal route to mice. Protection and/or neurotoxicity was noted 0.5 and 4 hours after administering doses of 30, 100 and 300 mg/kg of each semicarbazone to the animals.
Doses of 30, 100 and 300 mg/kg were injected by the intraperitoneal route into mice and evaluated in the MES, scPTZ and neurotoxicity screens one half and four hours after administration.

[7] = system: rats; conditions: oral administration to rats; examined ¼-24 h; data taken from reference 1; cited from earlier work
[8] = system: rats; experiment: MES screen after intraperitoneal injection into rats; type: in vivo; conditions: Rattus norvegicus, ip, 4 h
[9] = system: rats; experiment: neurotoxicity screen after oral administration to rats; conditions: oral dosing of rats; 500 mg/kg
Description: (§2) Initially doses of 50 mg/kg of the semicarbazones were administered.

[10] = system: rats; experiment: MES screen after oral administration to rats
Description: The majority of the compounds were examined for oral activity in rats. Initially doses of 50 mg/kg of the semicarbazones were administered.
Evaluation of most of the semicarbazones and analogs in the MES and neurotoxicity tests after oral administration to rats was performed.

[11] = in vivo; conditions: mouse, ip
[12] = system: mice; experiment: timed intravenous pentylenetetrazole test; type: in vivo; conditions: for quantity of pentylenetetrazole administered (SE) to clonus / quantity of pentylenetetrazole administered (SE) to first twitch: mice i.p.
Description: The times from the commencement-of the infusion until the appearances of the first twitch and also the onset of clonus were recorded for the test and control animals. […] Ten animals were used as controls and for each dose administered except for the 13 mg/kg dose of 4b in which case 9 animals were employed.

[13] = system: rats; experiment: scPTZ screen after intraperitoneal administration to rats; type: in vivo; conditions: for protection in the scPTZ screen, rats protected: intraperitoneal administration to rats
[14] = system: epileptic chicken; experiment: epileptic chicken model (intermittent photic stimulation); type: in vivo; conditions: Gallus gallus; convulsions induced by intermittent photic stimulation
Description: Two series of compounds were examined with the aim of observing whether oxygen or sulfur is a preferable spacer atom between the two aryl rings and also to compare the ED50 figures with those obtained in the rat oral and mouse intraperitoneal screens.

[15] = system: rats; conditions: rat, in vivo, ip
[16] = system: kindled rat; experiment: kindled rat test (corneal kindled rat screen); type: in vivo, rats; conditions: Rattus norvegicus; read-out: ED50 (dose required to reduce seizures from stage 5 to stage 3 or less)
Description: Particularly preferred compounds according to the present invention are 4-(4′-fluorophenoxy)benzaldehyde semicarbazone and 4-(thiophenoxy)benzaldehyde semicarbazone. […] Incidentally, the kindled rat screen is described by R. J. Racine in “Modification of Seizure Activity by Electrical Stimulation. II. Motor Seizure”, Electroencephalogr.Clin.Neurophysiol., 1972, 32, 281-294, and by G. Skeen et al. In “Development of Kindled Seizures Following Electrical Stimulation via the Cornea”, Soc.Neurosci., 1990, 16(1), 307; the disclosures of which are incorporated herein by reference.
The kindled rat test was undertaken by reported procedures (as indicated above). Compound 4b was administered orally and the animals challenged with electrical stimuli 2h later. The ED50 is the dose required to reduce seizures from stage 5 to stage 3 or less and these stages are described as follows namely stage 1 is mouth and facial clonus, stage 2 is stage 1 plus head nodding, stage 3 is stage 2 plus forelimb clonus, stage 4 is stage 3 plus rearing and stage 5 is stage 4 plus repeated rearing and falling.

[17] = in vivo; conditions: rat, po
Description: as §2

[18] = system: rat livers (liver microsomal system); experiment: effect of chronic oral administration on rat livers; type: in vivo, rats; conditions: 100 mg/kg orally daily for three days; p>0.05
Description: Further bioevaluations of compound 4b were undertaken.
Rats were administered 100 mg/kg of 4b daily for 3 days. The livers were removed, weighed and the effect of 4b on the liver microsomal system were compared to control animals which received only the vehicle (sonicated 0.5% methylcellulose).^21-23

[19] = various doses (5g 12-96 mg/kg), given 1 h (4b) or 0.5 h (5g) before
[20] = oral administration to rats, dose 50 mg/kg, 0.25 h
[21] = oral administration to rats, dose 50 mg/kg, 0.5 h
[22] = oral administration to rats, dose 50 mg/kg, 1 h
[23] = oral administration to rats, dose 50 mg/kg, 2 h
[24] = oral administration to rats, dose 50 mg/kg, 4 h
[25] = TD50 dose (4b 108 mg/kg, 5g 95 mg/kg)
[26] = approximate MES ED50 dose (4b 13 mg/kg, 5g 15 mg/kg)

NC(=O)NN=Cc1ccc(Oc2ccc(F)cc2)cc1 [Compound 4b, 4-(4′-fluorophenoxy)benzaldehyde semicarbazone]
number of animals protected in the subcutaneous bicuculline test ([1]; 54 mg/kg): 0/8
number of animals protected in the subcutaneous bicuculline test ([1]; 108 mg/kg): 3/8
number of animals protected in the subcutaneous bicuculline test ([1]; 216 mg/kg): 3/8
protection against convulsions induced by subcutaneous bicuculline [1, 19]: partial protection
ED50 ([2]; Mus musculus, ip, read-out: MES screen ED50 (mg/kg), intraperitoneal injection in mice): 15 to 25 mg/kg
MES screen ED50 ([2]; intraperitoneal injection in mice): 12.86 mg/kg
protection in the subcutaneous picrotoxin test (animals protected) ([3]; 27 mg/kg): 1/8
protection in the subcutaneous picrotoxin test (animals protected) ([3]; 108 mg/kg): 5/16
protection in the subcutaneous picrotoxin test (animals protected) ([3]; 216 mg/kg): 2/8
protection against convulsions induced by subcutaneous picrotoxin [3, 19]: partial protection
TD50 at 4 h [4]: 80.1 mg/kg
protection in the subcutaneous strychnine test [5]: no protection
acPTZ screen ED50 [6]: >54 mg/kg
neurotoxicity screen TD50 [7]: >500 mg/kg
ED50 [8]: 2.37 mg/kg
neurotoxicity at the maximum dose utilized [9]: absence of neurotoxicity
ED50 ([10]; Rattus norvegicus, po, read-out: MES screen ED50 (mg/kg), oral administration to rats, time t (h) per compound as in the table): 1.59 mg/kg
MES screen 0.25 h: number of rats out of 4 which were protected [10, 20]: 2
MES screen: number of rats out of 4 which were protected [10, 20]: 2
MES screen 0.5 h: number of rats out of 4 which were protected [10, 21]: 4
MES screen: number of rats out of 4 which were protected [10, 21]: 4
MES screen 1 h: number of rats out of 4 which were protected [10, 22]: 4
MES screen: number of rats out of 4 which were protected [10, 22]: 4
MES screen 2 h: number of rats out of 4 which were protected [10, 23]: 4
MES screen: number of rats out of 4 which were protected [10, 23]: 4
MES screen 4 h: number of rats out of 4 which were protected [10, 24]: 4
MES screen: number of rats out of 4 which were protected [10, 24]: 4
TD50 [11]: 108 mg/kg
quantity of pentylenetetrazole administered (SE) to clonus [12, 25]: 42.1(1.4) mg/kg
quantity of pentylenetetrazole administered (SE) to first twitch [12, 25]: 32.6(0.8) mg/kg
quantity of pentylenetetrazole administered (SE) to clonus [12, 26]: 37.6(1.5) mg/kg
quantity of pentylenetetrazole administered (SE) to first twitch [12, 26]: 32.3(1.4) mg/kg
effect on time to clonus ([12]; mice, dose of 108 mg/kg): increased the time to clonus
proconvulsant properties ([12]; mice, intraperitoneal doses = MES ED50 and TD50 figures, pentylenetetrazole infused after 1 h): Neither compound possessed this undesirable feature
protection in the scPTZ screen, rats protected ([13]; 125 mg/kg): 0/2
protection in the scPTZ screen, rats protected ([13]; 250 mg/kg): 1/10
protection in the scPTZ screen ([13]; rats, dose of 125 mg/kg): did not afford protection
rats protected in the scPTZ screen ([13]; rats, dose of 250 mg/kg): 10%
ED50 [14]: 1.5 mg/kg
slope (SE) of the TD50 [15]: 17.02(6.41)
ED50 [16]: 3.93 mg/kg
TD50 [17]: > 500 mg/kg
differences between livers from treated and control rats (liver weights, microsomal protein yields, hepatic enzyme activities) [18]: No differences
